Reference: patent US12097200B2, “Combination of BI853520 with chemotherapeutic drugs” (INXMED (NANJING) CO., LTD., priority 2020, dated 2024)
Values joined by “and” are separate entries in the source; they are usually repeats but may differ in a detail not shown here. Identical values can stand only once.

Legend:
[1] = tested on: HS 746T cells; test: Antitumor activity in mouse xenograft model of human gastric cancer (HS 746T); assay type: in vivo; conditions: HS 746T xenograft, combination of both
Source text: (§1) For tumor volume, absolute values were used.
(§2) Appropriate statistical methods were used for evaluation.
HS 746T: Approximately 6 week old mice.

[2] = tested on: CTG-1433; test: Antitumor activity in ovarian cancer PDX model CTG-1433; assay type: in vivo, mouse; conditions: CTG-1433 (carboplatin and paclitaxel-resistant); 49 days until end of test; doses as Table 3
Procedure: (§3) Body weights (at start of dosing) were approximately 20 grams. […] Immunocompromised female mice were housed in HEPA ventilated cages (Innocage® IVC, Innovive USA) at 68-74° F. (20-23° C.) and 30-70% humidity under a 12-hour light/12-hour dark cycle. […] Animals with >10% body weight loss compared to day 0 received DietAel 76A (ClearH2O®, Portland, ME) for free. There were 3 mice in each group.
(§4) Mice were implanted with tumor cells from the ChampionsTumorGraft® ovarian model, which was established from patients previously treated with platinum-based therapy. After tumors reached 1000-1500 mm^3, they were collected, and tumor fragments SCs were implanted in the left flank of female pre-study mice. Each study animal was implanted with a specific passage batch. Tumor volume was measured twice a week with calipers to monitor tumor growth, and tumor volume (TV) was calculated using the formula (0.52×[length×width^2]). […] After initiation of dosing, animals were weighed daily using a digital scale and TV was measured twice weekly. […]
(§5) Inhibitory effect on tumor growth was determined by calculating TGI (100%×[1−(final MTV−initial MTV of the treatment group)/(final MTV−initial MTV of the control group)]). […]
(§6) CR: no TV could be detected (<4×4 mm^2), in 2 consecutive measurements […]

[3] = tested on: CTG-1180; test: Antitumor activity in ovarian cancer PDX model CTG-1180; assay type: in vivo, mouse; conditions: CTG-1180 (carboplatin and paclitaxel-resistant); 42 days until end of test; doses as Table 3
Procedure: as §3, §4, §5, §6

[4] = tested on: CTG-1624; test: Antitumor activity in ovarian cancer PDX model CTG-1624; assay type: in vivo, mouse; conditions: 38 days until end of test, doses as Table 3
Procedure: as §3, §4, §5, §6

[5] = tested on: CTG-1086; test: Antitumor activity in ovarian cancer PDX model CTG-1086; assay type: in vivo, mouse; conditions: 28 days until end of test, doses as Table 3
Procedure: as §3, §4, §5, §6

[6] = tested on: KYSE-270 cells; test: Antitumor activity in mouse xenograft model of human esophageal cancer (KYSE-270); assay type: in vivo; conditions: KYSE-270 xenograft, combination of both
Source text: as §1, §2
Mice were approximately 8-10 weeks old.
KYSE-270 was a cell line for esophageal cancer (Public Health England, Cat. No. 94072021).

[7] = tested on: CTG-1395; test: Antitumor activity in ovarian cancer PDX model CTG-1395; assay type: in vivo, mouse; conditions: 33 days until end of test, doses as Table 3
Procedure: as §3, §4, §5, §6

[8] = tested on: NCI-H520 cells; conditions: NCI-H520 xenograft, day 22, combination of both
Procedure: Mice were approximately 6 weeks old. There were 5 mice in each group.
The cell concentration of the culture was maintained between 8×10^6 to 12×10^7 cells/tissue culture flask.
Cisplatin was dissolved in 0.9% saline.
Statistical evaluation was performed using the Student's t-test function in Microsoft Excel, utilizing a two-tailed distribution and a two-sample equal variance type.

[9] = tested on: A2780 cells; test: Antitumor activity in mouse model of human ovarian cancer (A2780 xenograft); assay type: in vivo
Source text: as §1, §2
A2780 cells harboring PTEN gene mutations were obtained from ECACC (93112519).

[10] = tested on: CTG-1498; test: Antitumor activity in ovarian cancer PDX model CTG-1498; assay type: in vivo, mouse; conditions: CTG-1498 (carboplatin and paclitaxel-resistant); 98 days until end of test; doses as Table 3
Procedure: as §3, §4, §5, §6

[11] = tested on: CTG-1649; test: Antitumor activity in ovarian cancer PDX model CTG-1649; assay type: in vivo, mouse; conditions: 40 days until end of test, doses as Table 3
Procedure: as §3, §4, §5, §6

[12] = tested on: CTG-1166; test: Antitumor activity in ChampionsTumorGraft PDX ovarian cancer model CTG-1166
Procedure: as §3
Mice were implanted with tumor cells from the ChampionsTumorGraft® ovarian model, which was established from patients previously treated with platinum-based therapy. After tumors reached 1000-1500 mm^3, they were collected, and tumor fragments SCs were implanted in the left flank of female pre-study mice. Each study animal was implanted with a specific passage batch. Tumor volume was measured twice a week with calipers to monitor tumor growth, and tumor volume (TV) was calculated using the formula (0.52×[length×width^2]). When TV reached approximately 250-350 mm^3 (average 300 mm^3), animals were matched to tumor size and assigned to the control or treatment groups (study mice) and dosing started on day 0. After initiation of dosing, animals were weighed daily using a digital scale and TV was measured twice weekly. The study was terminated when the mean tumor volume in the control group reached approximately 1500 mm^3 or until day 60. In some models, the study was extended beyond Day 60 and dosing was also extended to the end of the study. Individual animals could be removed from the study when tumor volume reaches approximately 1500 mm^3.
Control 1: 0.5% Natrosol; control 2: 5% sterile glucose.
The control group for oral administration was 0.5% Natrosol. The control group for intravenous administration was 5% sterile glucose.
Carboplatin was a pre-formulated 10 mg/mL stock solution. PLD was a pre-formulated 2 mg/mL stock solution. Paclitaxel was a pre-formulated 6 mg/mL stock solution. These standard chemotherapeutic drugs were provided by Champions.
Data for each group, including body weight for each animal and mean body weight, were recorded, and the percentage change in mean body weight (% vD0) for each group relative to Day 0 was recorded, and the % vD0 was plotted at the completion of the study.
Animal deaths were recorded daily and determined as drug-related (D), technical (T), tumor-related (B), or unknown (U) based on weight loss and by visual inspection. […] The maximum mean % vD0 (body weight nadir) for each treatment group was reported at the end of the study.
Inhibitory effect on tumor growth was determined by calculating TGI (100%×[1−(final MTV−initial MTV of the treatment group)/(final MTV−initial MTV of the control group)]). Treatment was started on day 0. Tumor volumes in the treatment group were compared with those in the control group on the day the study was completed.
Other endpoints used to assess efficacy included number of CR, PR and TFS. PR and TFS were considered to exclude CR.
PR: TV≤30% of TV on day 0, in 2 consecutive measurements
CR: no TV could be detected (<4×4 mm^2), in 2 consecutive measurements
TFS: CR that persisted until the study was completed
Data were used for statistical analysis at the end of the study. Statistical comparisons of tumor volumes were performed using one-way analysis of variance followed by Newman-Keuls multiple comparison test to compare differences between all groups. Selected endpoints included as many groups as possible and as many animals per group as possible.
Tumor volumes from animals removed early due to tumor volume ≥1500 mm^3 were carried forward for analysis, but not more than 4 consecutive measurement time points.

[13] = tested on: CTG-1677; test: Antitumor activity in ovarian cancer PDX model CTG-1677; assay type: in vivo, mouse; conditions: 32 days until end of test, doses as Table 3
Procedure: as §3, §4, §5, §6

[14] = tested on: CTG-0252; test: Antitumor activity in ovarian cancer PDX model CTG-0252; assay type: in vivo, mouse; conditions: 7 days until end of test, BI 853520 50 mg/kg PO BID, PLD 3 mg/kg IV q7d, carboplatin 25 mg/kg IP + paclitaxel 20 mg/kg IV q7d
Procedure: as §3, §4, §5, §6

[15] = tested on: CTG-0992; test: Antitumor activity in ovarian cancer PDX model CTG-0992; assay type: in vivo, mouse; conditions: CTG-0992 (carboplatin and paclitaxel-resistant); 60 days until end of test; doses as Table 3
Procedure: as §3, §4, §5, §6

[16] = tested on: CTG-0958; test: Antitumor activity in ovarian cancer PDX model CTG-0958; assay type: in vivo, mouse; conditions: 52 days until end of test, doses as Table 3
Procedure: as §3, §4, §5, §6

[17] = tested on: CTG-1602; test: Antitumor activity in ovarian cancer PDX model CTG-1602; assay type: in vivo, mouse; conditions: 14 days until end of test, doses as Table 3
Procedure: as §3, §4, §5, §6

[18] = tested on: GXA 3039 gastric cancer PDX model
Procedure: Mice were housed in individual ventilated cages ([sequence] Sealsafe™-IVC-System, [sequence], Hohenpeissenberg, Germany), and type II or III cages were selected according to the number of experimental animals. The cages were under the conditions: 14L:10D light-dark cycle, air exchange (AC) rate of 60-65 AC/hr in the cage, 25±1° C. and 40-70% humidity. […] Water and diet were changed twice a week, and all materials were autoclaved before use.
Tumor fragments were implanted subcutaneously into the flank of female pre-study mice. […] Animals that were not randomized were euthanized. The date of randomization was designated as day 0 of the test, and dosing began on day 1. […] If less than 70% of the original number of mice survived (i.e. less than 6 out of 8), the entire group was terminated. […] Tolerability was assessed using the group with the largest median body weight loss (BWL) among groups.
Inhibition of tumor growth was determined by calculating TGI.
Additional endpoints used to assess efficacy included: time to tumor volume doubling/quadrupling and tumor growth delay/time to tumor progression/tumor repopulation.
Time to tumor volume doubling/quadrupling: The time to tumor volume doubling/quadrupling (Td/Tq) for the test and control groups was defined as the time interval (in days) required for each group to reach 200%/400% of the median RTV. The relative volume of a single tumor on day X (RTVx [%]) was obtained by dividing the absolute volume of the tumor on day X (Tx) by the absolute volume of the tumor on day 0 (T0) and then multiplying it by 100, as follows:
Tumor growth delay/time to tumor progression/tumor repopulation: To assess the difference in time to tumor progression/tumor repopulation after tumor regression during the no-dose observation period (tumor growth delay, TGD), Kaplan-Meier survival analysis was used. A relative tumor volume of 400% was defined as the endpoint.
The control group for oral administration was 0.5% Natrosol. The control group for intravenous administration was 0.9% saline. Each dose was 10 ml/kg.
Data were used for statistical analysis at the end of the study. The one-tailed nonparametric Mann-Whitney-Wilcoxon U test was used with the significance level a set at 0.05. The p-values obtained from the U-test were adjusted using the Bonferroni-Holm correction.
To assess the statistical significance of differences in time to tumor progression/tumor growth delay (TGD) using 400% of RTV as the trial endpoint, the Kaplan-Meier survival mode statistic was used in conjunction with the log-rank Mantel-Cox test for pairwise comparisons.
Additionally, to assess tolerance to treatment, a two-tailed nonparametric Mann-Whitney-Wilcoxon U test was performed using body weights determined at the end of the dosing period (i.e., on the day TGI values were calculated).
By convention, p-values≤0.05 represented significant tumor inhibition or weight loss.

[19] = tested on: CTG-0956; test: Antitumor activity in ovarian cancer PDX model CTG-0956; assay type: in vivo, mouse; conditions: CTG-0956 (carboplatin and paclitaxel-resistant); 67 days until end of test; doses as Table 3
Procedure: as §3, §4, §5, §6

[20] = tested on: CTG-0868; test: Antitumor activity in ovarian cancer PDX model CTG-0868; assay type: in vivo, mouse; conditions: 25 days until end of test, doses as Table 3
Procedure: as §3, §4, §5, §6

[21] = tested on: PC-3 cells; test: Antitumor activity in mouse xenograft model of human prostate cancer (PC-3); conditions: PC-3 xenograft, combination of both
[22] = tested on: TOV-21G cells; test: Antitumor activity in mouse model of human ovarian cancer (TOV-21G xenograft); assay type: in vivo; conditions: combination of both
Source text: as §1, §2
TOV-21G cells harboring KRAS and PIK3CA gene mutations were obtained from ATCC (CRL-11730).

[23] = BI 853520 50 mg/kg qd, docetaxel 10 mg/kg q7d
[24] = BI 853520 50 mg/kg qd, paclitaxel 10 mg/kg q7d
[25] = BI 853520 50 mg/kg qd, cisplatin 5 mg/kg IP q7d
[26] = CTG-1166 PDX, Day 0-56, n=3 per group, doses as Table 4
[27] = CTG-1166 PDX, day 17, BI 853520 50 mg/kg PO BID, PLD 3 mg/kg IV q7d, carboplatin 25 mg/kg IP q7dx3 + paclitaxel 20 mg/kg IV q7dx3
[28] = BI 853520 25 mg/kg qd, docetaxel 7.5 mg/kg q7d
[29] = day 22, BI 853520 12.5 mg/kg qd by gavage, PLD 1 mg/kg q7d i.v.

Compound: COc1cc(C(=O)NC2CCN(C)CC2)c(F)cc1Nc1ncc(C(F)(F)F)c(Oc2cccc3c2C(=O)N(C)C3)n1 [BI 853520, 2-fluoro-5-methoxy-4-[(4-(2-methyl-3-oxo-2,3-dihydro-1H-isoindole-4-oxy)-5-trifluoromethyl-pyrimidin-2-yl)amino]-N-(1-methyl-piperidin-4-yl)benzamide]
- Median tumor volume ([1]; day 24 (withdrawal on day 28), BI 853520 50 mg/kg qd by gavage, docetaxel 10 mg/kg q7d i.v.): 229 mm^3
- Antitumor effect (in words) [1, 23]: had inhibitory effect
- Change in median body weight [1, 23]: 7.3%
- TGI [1, 23]: 93%
- Tumor regression (animals with regression/animals in group) [1, 23]: 1 of 8 and 1/8
- TGI (%) [2]: 61%
- TGI (%) [3]: 33%
- TGI (%) [4]: 22%
- TGI (%) [5]: 39%
- Median tumor volume ([6]; day 13, BI 853520 50 mg/kg qd by gavage, paclitaxel 10 mg/kg q7d i.v.): 126 mm^3
- TGI ([6]; day 13, BI 853520 50 mg/kg qd, paclitaxel 10 mg/kg q7d): 106%
- Antitumor effect (in words) [6, 24]: had inhibitory effect on tumor growth
- Change in median body weight [6, 24]: 2.8%
- Tumor regression (animals with regression/animals in group) [6, 24]: 6 of 7 and 6/7
- TGI (%) [7]: 41%
- Median tumor volume ([8]; BI 853520 50 mg/kg qd by gavage, cisplatin 5 mg/kg IP once a week): 352 mm^3
- Median TGI [8, 25]: 54%
- Tumor regression (animals with regression/animals in group) [8, 25]: 0/7
- Antitumor effect (in words) ([9]; BI 853520 25 and 50 mg/kg qd, PLD 5 mg/kg q7d, combination 50 + 5 mg/kg): efficacy of BI 853520 was observed at medium and high dose levels
- TGI ([9]; day 1 to day 15, BI 853520 12.5 mg/kg qd): 19%
- TGI ([9]; day 1 to day 15, BI 853520 25 mg/kg qd): 83%
- TGI ([9]; day 1 to day 15, BI 853520 50 mg/kg qd, PLD 5 mg/kg q7d, combination of both): 85%
- Median tumor volume ([9]; day 15, BI 853520 12.5 mg/kg qd by gavage): 968 mm^3
- Tumor regression (animals with regression/animals in group) ([9]; day 15, BI 853520 12.5 mg/kg qd, 12.5 mg/kg): no tumor regression and 0/10
- Median tumor volume ([9]; day 15, BI 853520 25 mg/kg qd by gavage): 284 mm^3
- Tumor regression (animals with regression/animals in group) ([9]; day 15, BI 853520 25 mg/kg qd, 25 mg/kg): no tumor regression and 0/10
- Median tumor volume ([9]; day 15, BI 853520 50 mg/kg qd by gavage, PLD 5 mg/kg q7d i.v., combination of both): 262 mm^3
- Tumor regression (animals with regression/animals in group) ([9]; day 15, BI 853520 50 mg/kg qd, PLD 5 mg/kg q7d, combination of both): no tumor regression and 0/10
- TGI (%) [10]: 128%
- TGI (%) [11]: 71%
- #CR (complete responses) [12, 26]: 0/0/0
- #PR (partial responses) [12, 26]: 0/0/0
- #TFS (tumor-free survivors) [12, 26]: 0/0/0
- Body weight (day 17) % vD0 ([12]; CTG-1166 PDX, day 17, change in mean body weight relative to Day 0): 4.0%
- % TGI [12, 27]: 89%
- Tumor volume (day 17) Mean ± SEM [12, 27]: 366 ± 78 mm^3
- Dead Total ([12]; CTG-1166 PDX, animal deaths, n=3 per group): 0
- Body weight nadir Day ([12]; CTG-1166 PDX, day of body weight nadir): 13
- Antitumor activity (in words) ([12]; CTG-1166 PDX, doses as Table 4): significant inhibitory effect on tumor growth
- Body weight (day 17) Mean ± SEM ([12]; mouse, in vivo): 26.7 ± 0.4 g
- Body weight nadir % vD0(max) ([12]; mouse, in vivo, po, 50 mg/kg): −0.7%
- TGI (%) [13]: 51%
- TGI (%) [14]: 54%
- TGI (%) [15]: 49%
- TGI (%) [16]: 99%
- TGI (%) [17]: −1%
- Antitumor effect (in words) ([18]; GXA 3039 PDX, doses as Table 8): did not show any antitumor efficacy
- Td (time to tumor volume doubling) ([18]; GXA 3039 PDX, time to 200% of median RTV, doses as Table 8): 8.1 days
- Tq (time to tumor volume quadrupling) ([18]; GXA 3039 PDX, time to 400% of median RTV, nr = not reached until end of test, doses as Table 8): 41.2 days
- TGI [%] (d) ([18]; GXA 3039 gastric cancer PDX, day 36, BI 853520 50 mg/kg/d PO days 1-35, docetaxel 10 mg/kg IV days 1, 8, 15, 22, 29, combination of both): 0% and 0(36) %
- Survival rate ([18]; female, BomTac:NMRI-Foxn1nu, mouse, in vivo): 4/8
- TGI (%) [19]: 77%
- TGI (%) [20]: 54%
- Median tumor volume ([21]; day 35 (withdrawal on day 28), BI 853520 25 mg/kg qd by gavage, docetaxel 7.5 mg/kg q7d i.v.): 316 mm^3
- Antitumor effect (in words) [21, 28]: certain inhibitory effect on tumor growth
- Change in median body weight [21, 28]: 2.4%
- TGI [21, 28]: 66%
- Tumor regression (animals with regression/animals in group) [21, 28]: 0/7
- Antitumor effect (in words) ([22]; BI 853520 12.5 mg/kg qd, PLD 1 mg/kg q7d): good efficacy at low doses
- TGI ([22]; day 1 to day 22, median tumor volumes, BI 853520 12.5 mg/kg qd, PLD 1 mg/kg q7d): 67%
- Median tumor volume [22, 29]: 271 mm^3
- Tumor regression (animals with regression/animals in group) [22, 29]: no tumor regression and 0/7
